Patent US20030109418A1, “Methods for identifying compounds for inhibition of neoplastic lesions, and pharmaceutical compositions containing such compounds” (priority 1999, published 2003)
Like-named read-outs stand apart in the source and are kept apart here.

Tests used:
[1] = tested on: HT-29 colon adenocarcinoma cells; test: Apoptosis by DNA fragmentation assay in HT-29; assay type: cell-based, human; on Apoptosis: key: −: Not active; +: Slightly active; ++: Moderately active; +++: Strongly active; ++++: Highly active
[2] = tested on: HT-29 human colon carcinoma cell line; test: Growth inhibition, SRB assay, HT-29; assay type: cell-based; set-up: Growth Inhibition: key to the marks not given beside the values
[3] = tested on: SW-480 colon adenocarcinoma cells
[4] = tested on: premalignant lesions in mouse mammary gland organ culture; test: Mammary gland organ culture model; assay type: cell-based; conditions: qualitative activity profile; further: key: −: Not active; +: Slightly active; ++: Moderately active; +++: Strongly active; ++++: Highly active
Source text: Test compounds identified by the above methods can be tested for antineoplastic activity by their ability to inhibit the incidence of pre-neoplastic lesions in a mammary gland organ culture system. This mouse mammary gland organ culture technique has been successfully used by other investigators to study the effects of known antineoplastic agents such as certain NSAIDs, retinoids, tamoxifen, selenium, and certain natural products, and is useful for validation of the screening method of the present invention.
For example, female BALB/c mice can be treated with a combination of estradiol and progesterone daily, in order to prime the glands to be responsive to hormones in vitro. The animals are sacrificed, and thoracic mammary glands are excised aseptically and incubated for ten days in growth media supplemented with insulin, prolactin, hydrocortisone, and aldosterone. DMBA (7,12-dimethylbenz(a)anthracene) is added to medium to induce the formation of premalignant lesions. Fully developed glands are then deprived of prolactin, hydrocortisone, and aldosterone, resulting in the regression of the glands but not the pre-malignant lesions.
The test compound is dissolved in DMSO and added to the culture media for the duration of the culture period. At the end of the culture period, the glands are fixed in 10% formalin, stained with alum carmine, and mounted on glass slides. The incidence of forming mammary lesions is the ratio of the glands with mammary lesions to […]. The incidence of mammary lesions in test compound treated glands is compared with that of the untreated glands.
The extent of the area occupied by the mammary lesions can be quantitated by projecting an image of the gland onto a digitation pad. The area covered by the gland is traced on the pad and considered as 100% of the area. The space covered by each of the non-regressed structures is also outlined on the digitization pad and quantitated by the computer.
Mammary gland organ culture experiment were performed as previously described (Mehta and Moon, Cancer Research, 46: 5832-5835, 1986). […] The data support the hypothesis that cyclooxygenase inhibition is not necessary for the anti-neoplastic properties of desired compounds.

[5] = tested on: cGMP PDE purified from human colon HT-29 cultured tumor cells; test: cGMP PDE inhibition assay; assay type: biochemical; conditions: for PDE Inhibition: qualitative activity profile; for IC50: read-out: IC50 for inhibition of cGMP PDE, HT-29 cell enzyme
[6] = target: T1, purified cyclooxygenase (Type 1, COX-I) from ram seminal vesicles (Ovis aries, UniProt P05979); test: COX inhibition assay, purified cyclooxygenase; assay type: biochemical; conditions: for COX Inhibition: qualitative activity profile; for inhibition at 100 µM: read-out: Cyclooxygenase inhibitory activity, % Inhibition at 100 μM
T1 construct: using purified cyclooxygenase from ram seminal vesicles as described previously; tissue Cayman Chemical, Ann Arbor, Mich; (named in the general protocol only); host or cells: ram seminal vesicles
T1 sequence (P05979 25-600): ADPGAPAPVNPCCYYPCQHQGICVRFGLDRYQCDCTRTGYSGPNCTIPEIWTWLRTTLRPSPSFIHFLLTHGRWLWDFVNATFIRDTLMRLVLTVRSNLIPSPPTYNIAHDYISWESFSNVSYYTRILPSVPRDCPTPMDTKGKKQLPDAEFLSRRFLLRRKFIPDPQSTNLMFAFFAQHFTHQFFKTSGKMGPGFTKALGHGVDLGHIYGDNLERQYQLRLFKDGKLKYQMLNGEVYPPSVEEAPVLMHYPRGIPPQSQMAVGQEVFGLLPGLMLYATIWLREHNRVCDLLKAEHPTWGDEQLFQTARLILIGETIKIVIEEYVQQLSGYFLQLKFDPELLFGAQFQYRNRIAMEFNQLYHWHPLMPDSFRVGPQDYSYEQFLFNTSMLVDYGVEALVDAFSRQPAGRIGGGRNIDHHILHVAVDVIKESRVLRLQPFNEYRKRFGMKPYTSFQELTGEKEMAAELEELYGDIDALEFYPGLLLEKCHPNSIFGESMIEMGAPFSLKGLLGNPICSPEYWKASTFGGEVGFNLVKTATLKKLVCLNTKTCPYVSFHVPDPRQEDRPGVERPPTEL

[7] = target: T2, PDE peak A (PDE5) from SW480 cells (Homo sapiens, UniProt O76074); test: cGMP hydrolysis inhibition, PDE peak A from SW480; assay type: biochemical
T2 construct: endogenous in cells; host or cells: SW480 colon cancer cells, DEAE-Trisacryl M fraction

[8] = target: T3, classic PDE2 (Peak B) from SW480 (Homo sapiens, UniProt O00408); test: Inhibition of classic PDE2 Peak B isolated with ethylene glycol buffers; assay type: biochemical
T3 construct: endogenous in cells; host or cells: SW480 cells, non-FPLC DEAE column with 30% ethylene glycol buffers
Method: A second method used to isolate classic PDE2 from SW480 was done using a non-FPLC DEAE column procedure described above (see Section IA) with the modification that the buffers contained 30% ethylene glycol, 10 mM TLCK and 3.6 mM β-mercaptoethanol. The addition of these reagents to the buffers causes a shift in the elution profile (see FIG. 25) from low to high sodium acetate so that peak A moves from 40 to 150 mM, peak B from 75 to 280 mM and peak C from 200 to 500 mM Na acetate (see FIG. 25).

[9] = tested on: SW-480 colon adenocarcinoma cells; test: Apoptosis fold induction protocol (DNA fragmentation ELISA); conditions: cell line not given
[10] = target: novel cGMP-specific PDE peak B from SW480 cells (Homo sapiens); test: cGMP hydrolysis inhibition, novel PDE peak B (Section IA) from SW480; assay type: biochemical; conditions: Section IA Peak B, cGMP hydrolysis, 0.25 μM 3H-cGMP
[11] = target: T4, cGMP binding sites of the GST-cGB-PDE5 protein (Homo sapiens, UniProt O76074); test: cGMP binding assay with GST-cGB-PDE5 fusion protein; conditions: 3H-cGMP 2 μM
T4 construct: made in house; host or cells: E. coli BL21 (DE3)

[12] = tested on: PDE4 purified from human colon HT-29 cultured tumor cells; test: PDE4 inhibition assay; assay type: biochemical; conditions: HT-29 cell enzyme
[13] = tested on: peak B's from SW480, HTB-26, and LnCAP; test: cGMP PDE activity of peak B's isolated by FPLC; assay type: biochemical; conditions: 100 nM inhibitor
Method: The novel Peak B was also isolated from two other neoplastic cell lines, a breast cancer cell line, HTB-26 and a prostate cancer cell line, LnCAP by a procedure similar to the one above used to isolate it from SW480. The protocol was modified in several respects. To provide even greater reproducibility to allow comparison of different cell lines, a Pharmacia AKTA FPLC was used to control sample loading and elution on an 18 mL DEAE TrisAcryl M column. SW840 was run by this same procedure multiple times to provide a reference of peak B. 200-400 million cells of SW480 were used for the profiles. 70 million cells of LnCAP were used for a profile (see FIGS. 22 and 23), and in a separate experiment 32 million cells of HTB-26 were used for a profile (see FIGS. 20 and 21). After re-suspending cells in homogenization buffer, samples were manually homogenized. FPLC buffer A was 8 mM TRIS-acetate, 5 mM Mg acetate, 0.1 mM EDTA, pH 7.5 and buffer B was 8 mM TRIS-acetate, 5 mM Mg acetate, 0.1 mM EDTA, 1 M Na acetate, pH 7.5. Supernatants were loaded onto the column at 1 mL per minute, followed by a wash with 60 mL buffer A at 1 mL per minute. A gradient was run from 0-15% buffer B in 60 mL, 15-50% buffer B in 60 mL, and 50-100% buffer B in 16 mL. During the gradient 1.5 mL fractions were collected.

[14] = tested on: PC-3; test: Growth inhibition, neutral red assay, PC-3; assay type: cell-based, human; conditions: Homo sapiens, PC-3; neutral red assay (Schmid et al.); read-out: IC50 (μM), Human Prostate Carcinoma PC3
Method: (§1) Compound I's activity is not confined to activity against colon cancer cell lines or animal models of colon cancer. It has a broad range of anti-neoplastic effects in various neoplastic cell lines. Various types of human cancer cell lines were propagated under sterile conditions in RPMI 1640 medium with 10% fetal bovine serum, 2 mM L-glutamine and sodium bicarbonate. To determine growth inhibitory effects of Compound I, cells were seeded in 96-well plates at a density of 1000 cells per well. Twenty-four hours after plating, the cells were dosed with various concentrations of the free base of Compound I solubilized in DMSO (final concentration 0.1%). The effect of the drug on tumor cell growth was determined using the neutral red cytotoxicity assay following five days of continuous treatment. Neutral red is a dye that is selectively taken up by viable cells by an ATP-dependent transport mechanism.

[15] = tested on: Colo 205; test: Growth inhibition, neutral red assay, Colo 205; assay type: cell-based, human; conditions: Homo sapiens, COLO 205; neutral red assay (Schmid et al.)
Method: as §1

[16] = target: novel cGMP-specific PDE peak B from SW480 cells (Homo sapiens, UniProt O00408); test: cGMP hydrolysis inhibition, novel PDE peak B (Section IA) from SW480; assay type: biochemical
novel cGMP-specific PDE peak B from SW480 cells, sequence (O00408 2-941): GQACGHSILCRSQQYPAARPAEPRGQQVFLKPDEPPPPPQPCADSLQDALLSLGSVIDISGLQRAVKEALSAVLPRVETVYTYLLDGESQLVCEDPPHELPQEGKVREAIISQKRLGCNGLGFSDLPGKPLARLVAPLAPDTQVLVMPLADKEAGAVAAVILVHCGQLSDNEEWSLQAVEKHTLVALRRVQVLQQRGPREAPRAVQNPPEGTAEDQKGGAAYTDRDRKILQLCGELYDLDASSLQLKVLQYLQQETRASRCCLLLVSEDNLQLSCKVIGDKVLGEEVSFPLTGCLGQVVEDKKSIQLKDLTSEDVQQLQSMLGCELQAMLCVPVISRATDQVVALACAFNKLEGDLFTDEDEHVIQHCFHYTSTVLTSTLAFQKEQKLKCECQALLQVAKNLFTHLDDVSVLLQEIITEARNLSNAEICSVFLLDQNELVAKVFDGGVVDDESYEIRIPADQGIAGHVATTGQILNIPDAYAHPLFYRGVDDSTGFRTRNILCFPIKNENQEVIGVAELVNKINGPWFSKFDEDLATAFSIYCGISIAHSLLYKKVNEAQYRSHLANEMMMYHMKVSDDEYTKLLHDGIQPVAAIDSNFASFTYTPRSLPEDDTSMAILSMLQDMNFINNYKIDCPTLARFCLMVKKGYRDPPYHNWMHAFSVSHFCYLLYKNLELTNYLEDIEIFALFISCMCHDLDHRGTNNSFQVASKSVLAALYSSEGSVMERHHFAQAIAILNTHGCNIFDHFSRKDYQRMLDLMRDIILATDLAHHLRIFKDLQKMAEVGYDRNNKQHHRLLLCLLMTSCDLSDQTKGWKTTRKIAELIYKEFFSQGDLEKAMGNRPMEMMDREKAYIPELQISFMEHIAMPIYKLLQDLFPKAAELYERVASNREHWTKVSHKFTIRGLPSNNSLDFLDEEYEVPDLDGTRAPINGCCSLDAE

T3 sequence (O00408 whole entry): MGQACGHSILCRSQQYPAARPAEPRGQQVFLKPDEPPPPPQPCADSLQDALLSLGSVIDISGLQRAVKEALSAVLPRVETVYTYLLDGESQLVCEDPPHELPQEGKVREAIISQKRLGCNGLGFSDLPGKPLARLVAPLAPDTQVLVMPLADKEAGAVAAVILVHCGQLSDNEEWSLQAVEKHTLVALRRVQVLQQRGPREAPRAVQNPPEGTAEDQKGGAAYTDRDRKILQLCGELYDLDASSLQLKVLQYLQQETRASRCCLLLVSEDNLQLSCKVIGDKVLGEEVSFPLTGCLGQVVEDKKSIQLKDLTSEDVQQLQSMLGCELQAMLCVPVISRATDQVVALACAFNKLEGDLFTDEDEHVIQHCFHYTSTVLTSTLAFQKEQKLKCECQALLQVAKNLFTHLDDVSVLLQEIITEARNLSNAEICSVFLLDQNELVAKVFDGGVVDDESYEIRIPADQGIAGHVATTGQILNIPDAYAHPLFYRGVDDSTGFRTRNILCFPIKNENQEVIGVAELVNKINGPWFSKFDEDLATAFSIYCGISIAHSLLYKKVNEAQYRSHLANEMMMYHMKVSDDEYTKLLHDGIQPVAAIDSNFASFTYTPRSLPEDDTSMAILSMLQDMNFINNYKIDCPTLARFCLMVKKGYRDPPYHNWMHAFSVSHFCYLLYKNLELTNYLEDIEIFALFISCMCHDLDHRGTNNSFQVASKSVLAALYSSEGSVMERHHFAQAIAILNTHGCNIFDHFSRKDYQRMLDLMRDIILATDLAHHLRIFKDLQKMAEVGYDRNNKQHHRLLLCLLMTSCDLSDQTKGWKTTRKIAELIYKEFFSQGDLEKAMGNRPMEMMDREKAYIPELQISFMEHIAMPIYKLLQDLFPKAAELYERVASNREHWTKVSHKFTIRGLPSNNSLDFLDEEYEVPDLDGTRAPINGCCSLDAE
novel cGMP-specific PDE peak B from SW480 cells (Homo sapiens), sequence (O00408 2-941): as the sequence (O00408 2-941) above

## CCN(CC)CCSC12CC(=O)OC1(C)/C(=C/c1ccc(S(C)(=O)=O)cc1)c1ccc(F)cc12 (racemic) [A, rac-threo-(E)-1-(N,N′-diethylaminoethanethio)-1-(butan-1′,4′-olido)-[3′,4′: 1,2]-6-fluoro-2-methyl-3-(p-methylsulfonylbenzylidene)-indan]
[1]; qualitative activity profile
  Apoptosis: ++
[2]
  Growth-inhibitory activity, % Inhibition at 100 μM: 68%
[2]; qualitative activity profile
  Growth Inhibition: +++
[3]
  Apoptosis-inducing activity, Fold induction at 100 μM: <2.0 fold
[4]
  Mammary Gland Organ Culture: ++
[5]
  cGMP PDE inhibitory activity, % Inhibition at 10 μM: <25%
  PDE Inhibition: −
[6]; 100 μM
  Cyclooxygenase inhibitory activity, % Inhibition at 100 μM: <25%
[6]
  COX Inhibition: −

## CCCCCC[C@@H]([C@@H](C)O)n1cnc2c(N)ncnc21 (racemic) [EHNA]
[7]; cGMP hydrolysis, 0.25 μM 3H-cGMP
  IC50: > 100 µM
[8]; 2.0 μM cAMP substrate, read-out: IC50, cAMP PDE activity in Peak B
  IC50: 3.8 µM
[8]; read-out: IC50, cAMP PDE activity in Peak B with rolipram, 2.0 μM cAMP substrate, addition of 10 μM rolipram
  IC50: 2.5 µM
[8]; read-out: IC50, cGMP PDE activity in Peak B, 2 μM cGMP substrate
  IC50: 1.6 µM
[9]; 100 μM
  Apoptosis-inducing activity, Fold induction at 100 μM: <2.0 fold
[10]
  IC50: 3.7 µM

## COc1cc(C=C2C(C)=C(CC(=O)O)c3cc(F)ccc32)cc(OC)c1OC [Compound B, (Z)-5-Fluoro-2-methyl-1-(3,4,5-trimethoxybenzylidene)-3-acetic acid]
[11]
  competition with cGMP in binding of GST-cGB-PDE5: do not bind to the cGMP binding sites of PDE5
[1]; Homo sapiens, HT-29, 48 hours
  EC50: ~175 µM
[9]; Homo sapiens, SW480, read-out: Apoptosis-inducing activity, Fold induction at 100 μM, 100 μM
  fold induction at 100 µM: > 2
[12]
  IC50: 58 µM
[5]
  cGMP PDE inhibitory activity, % Inhibition at 10 μM: <25%
  PDE Inhibition: +++
  IC50: 18 µM
[6]
  COX-I inhibition (FIG. 5): neither test compound B and E significantly inhibit COX-I
  COX Inhibition: −
  inhibition at 100 µM: < 25%

## O=C(O)C1CCN(c2nc(NCc3ccc4c(c3)OCO4)c3cc(Cl)ccc3n2)CC1 [Compound E4021]
[11]
  competition with cGMP in binding of GST-cGB-PDE5: do not bind to the cGMP binding sites of PDE5
[2]
  Growth-inhibitory activity, % Inhibition at 100 μM: <50%
[2]; HT-29 treated for 6 days, SRB assay, read-out: Growth inhibition (IC50)
  IC50: > 100 µM
[13]
  sensitivity of peak B's cGMP PDE activity: resistant

## COc1cc(/C=C2/C(C)=C(CC(=O)NCc3ccccc3)c3cc(F)ccc32)cc(OC)c1OC [Compound E, (Z)-5-Fluoro-2-methyl-1-(3,4,5-trimethoxybenzylidene)-3-indenylacetamide, N-benzyl]
[7]
  Ratio (IC50 Peak A/Peak B): 1.0
  competitive (with cGMP) binding to PDE 5 (peak A): does competitively (with cGMP) bind
[11]
  competition with cGMP in binding of GST-cGB-PDE5: do not bind to the cGMP binding sites of PDE5
[14]
  IC50: 0.9 µM
[15]
  IC50: 1.62 µM
[12]
  IC50: > 25 µM
[5]
  cGMP PDE inhibitory activity, % Inhibition at 10 μM: 75%
  PDE Inhibition: ++++
  IC50: 0.08 µM
[16]
  competitive (with cGMP) binding to PDE peak B: competitively (with cGMP) binds
[6]
  COX-I inhibition (FIG. 5): neither test compound B and E significantly inhibit COX-I
  COX Inhibition: −
  inhibition at 100 µM: < 25%
